Results reported in a melting point compilation (Tetko et al.; mined from patent text by program, amines drawn as free bases though some values may be those of a salt).

In the case of `COc1ccc2c(c1)-c1n[nH]c(-c3ccncc3)c1CCC2`, the melting point is reported as 200 to 201 °C.
`CC1CCN(c2c(F)cc3c(=O)c(C(=O)O)cn4c3c2CCC4C)CC1` (stereo unspecified) showed a melting point of 266 to 268 °C.
For `O=P(O)(O)Cc1cccc(C(F)(F)F)c1`, the melting point was 163 to 164 °C.
`O=C(Nc1ccc2ccccc2c1C(=O)O)OCc1cc2cc(-c3ccccc3)ccc2o1` gave a melting point of 174 to 177 °C.
In the case of `CN1CCC(OC2c3ccccc3CCn3c2nc(I)c3C(N)=O)CC1` (stereo unspecified), the melting point is reported as 85 °C.
Work on `CCCCCCCCCCCCCCCCNC(=O)CCCO` yielded a melting point of 89.5 to 90 °C.
For `CCCCc1ncc(C=C2C(=O)Nc3ccccc32)n1Cc1ccc(C(=O)OCC)cc1`, the melting point was 169 to 171 °C.
With `CN(C(=O)c1ccc2nonc2c1)[C@H]1CC[C@@H](C#N)CC1` the melting point was 180 to 181 °C.
With `CCCC(=O)c1cnc2c(OC)cccc2c1Nc1ccc(OC(C)=O)cc1C` the melting point was 167 to 169 °C.
Molecule `CC(C(N)=O)c1ccc2c(c1)C(=O)Cc1cccnc1S2` (stereo unspecified) has a melting point of 190 to 192 °C.
With `O=C1Nc2cc(C(F)(F)F)ccc2C1c1cc(Cl)ccc1O` (stereo unspecified) the melting point was 266 to 268 °C.
Work on `CC(C)OP(=O)(CNc1cc(Oc2ccc(C(F)(F)F)cc2Cl)ccc1[N+](=O)[O-])OC(C)C` yielded a melting point of 93 to 94 °C.
Work on `Cn1nc(C(=O)C(=O)c2ccccc2)ccc1=O` yielded a melting point of 89 to 92 °C.
Molecule `COC(=O)C(=Cc1ccc(OCc2ccccc2)cc1)C(=O)OC` has a melting point of 134 to 135 °C.
`O=C(NCCSc1ccccc1)n1cc(F)c(=O)[nH]c1=O` gave a melting point of 130 to 133 °C.
In the case of `CCCOc1c(-c2cc(C=CC(=O)O)ccc2OC)cc(C(C)(C)C)cc1C(C)(C)C`, the melting point is reported as 107 to 109 °C.
`O=C(NNC1NS(=O)(=O)c2ccccc21)Oc1ccccc1` (stereo unspecified) gave a melting point of 216 °C.
Work on `CCCCCCCCCCCCCCCCCCNC(=O)NN` yielded a melting point of 100 °C.
`N#Cc1ccc(NC(=O)c2cccc(OCc3ccc(F)c(F)c3)c2)cc1` showed a melting point of 173 to 174 °C.
`Cc1nnc2ccc(-c3cccc(NC(=O)C4CC4)c3)nn12` gave a melting point of 255 to 258 °C.
Molecule `COc1nccc(C)c1NC(=O)c1cccnc1Cl` has a melting point of 145 to 146 °C.
`Cn1c(=O)n(-c2cc(Cl)cc(Cl)c2)c(=O)n1C` gave a melting point of 209 to 211 °C.
Molecule `COc1ccc2sc(C(N)=O)c(Sc3ccccc3)c2c1` has a melting point of 194 to 196 °C.
`CCCSc1ncc(C(=O)N[C@@H](C)C(=O)O)n1Cc1ccccc1Cl` showed a melting point of 173 to 176 °C.
For `CCn1cc(/C=C/c2cn(-c3ccccc3)nc2OCc2ccc(OCc3nc(-c4ccc(CC(=O)O)cc4)oc3C)c(OC)c2)cn1`, the melting point was 146 to 147 °C.
`O=C(Cn1ncc(-c2ccccc2)c1-c1ccccc1)NCCCO` showed a melting point of 138 to 139 °C.
Work on `COC(=O)c1cc(C)cc(Br)c1NS(=O)(=O)c1ccc(OC)cc1` yielded a melting point of 113 °C.
For `CC(=O)OC1CCC2(C)C(=CC=C3C2CCC2(C)C(C(C)CC#CC(C)(C)OC(C)=O)=CCC32)C1` (stereo unspecified), the melting point was 98 to 101 °C.
For `CCCCCCCCCCCCCCCCCCS(=O)(=O)c1cc(C(=O)OC)c([N+](=O)[O-])c(C(=O)OC)c1`, the melting point was 98 to 100 °C.
For `O=C(O)/C=C\C(=O)NCC(=O)N1c2ccccc2N(Cc2ccccc2)C(=O)[C@H]2CCC[C@H]21` (relative stereo), the melting point was 207 to 209 °C.
With `COc1ccc(OC2COc3ccc(OCc4nc5cc(F)ccc5s4)cc3C2O)cc1` (stereo unspecified) the melting point was 180 to 181 °C.
Work on `COC(=O)c1cc2c(cc1OC)OCO2` yielded a melting point of 74 to 75 °C.
In the case of `O=C1OC2(CCN(CCOC(c3ccccc3)c3ccccc3)CC2)c2ccccc21`, the melting point is reported as 99 to 100 °C.
Work on `CC(NC(=O)c1cc(Cl)ccc1NC(=O)C1CC(=O)NN1)C1CC1` (stereo unspecified) yielded a melting point of 248 °C.
In the case of `O=C(O)CC1(c2cccc(F)c2)NC(=O)NC1=O` (stereo unspecified), the melting point is reported as 206 to 208 °C.
`Cc1ccc(S(=O)(=O)NCCN(C(=O)c2ccccc2C(=O)c2ccccc2)C(C)C)cc1` showed a melting point of 135 to 137 °C.
Molecule `CC(C)n1nc(-c2sc(C(=O)N3CCN(C)CC3)nc2-c2ccccc2)ccc1=O` has a melting point of 155 to 156 °C.
In the case of `N=C(N)c1ccc(-c2ccc(Nc3ccc(CCC(=O)O)cc3)nn2)cc1`, the melting point is reported as > 260 °C.
In the case of `Oc1ccc2c(c1)OCC(c1ccc(C(F)(F)F)cc1)C2c1ccc(OCCN2CCCCC2)cc1` (stereo unspecified), the melting point is reported as 117 to 119 °C.
For `CNN1C(=O)CSC1=Cc1cc(C(C)(C)C)c(O)c(C(C)(C)C)c1`, the melting point was 151 to 154 °C.
`COC(=O)c1cc(CCCNCc2ccccc2)ccc1OCc1ccccc1` showed a melting point of 75 to 77 °C.
With `Cc1cccc(C2CCN(CCCCCC(=O)N3Cc4ccccc4C3)CC2)c1C#N` the melting point was 132 °C.
In the case of `Fc1ccc(C2CN(C(c3ccccc3)c3ccccc3)C2)cc1`, the melting point is reported as 65 to 66 °C.
Molecule `O=C(O)CCc1cn(Cc2ccc(OCc3coc(-c4ccccc4)n3)cc2)nc1-c1cccs1` has a melting point of 145 to 146 °C.
`O=[N+]([O-])c1cc(NCCO)ccc1NCCO` showed a melting point of 107 °C.
With `COc1ccc(-c2c(SCc3ccccc3)oc3cc(OCc4ccccc4)ccc3c2=O)cc1` the melting point was 131 °C.
`COC(=O)c1cc(Cl)cc2c1OCCN2C` showed a melting point of 91 to 92 °C.
Molecule `ON=C1CCN(C2c3ccccc3COc3ccc(Br)cc32)CC1` (stereo unspecified) has a melting point of 223 to 225 °C.
Molecule `COc1cc2c(Nc3ccc(Sc4nccn4C)c(Cl)c3)c(C#N)cnc2cc1-c1ccc(CN2CCOCC2)c(CN2CCOCC2)c1` has a melting point of 228 to 230 °C.
`NCC1CCc2[nH]c3ccc(Cl)c(Cl)c3c2C1` (stereo unspecified) showed a melting point of 169 to 170 °C.
`O=C(O)CCc1cc2ccccc2s1` showed a melting point of 140 to 142 °C.
Work on `N#CC(=Cc1ccc(O)c(O)c1)C(=O)O` yielded a melting point of 240 °C.
Molecule `CC(C)C1c2ccc(F)cc2CCC1(O)CCO` (stereo unspecified) has a melting point of 78 to 80 °C.
Work on `CCOC(=O)NNc1ccc(-c2ccc(F)cc2)nn1` yielded a melting point of 173 to 174 °C.
With `O=C(O)C1(c2ccc3c(c2)OCO3)CC(F)(F)C1(F)F` (stereo unspecified) the melting point was 168 to 169 °C.
In the case of `CCCc1nc(Cl)c(C=O)n1Cc1ccc(-c2ccccc2-c2nnn[nH]2)cc1`, the melting point is reported as 165 to 167 °C.
With `CCOC(=O)Cc1c(C(C)C(=O)O)c2cc(OC)ccc2n1Cc1ccc(Cl)cc1` (stereo unspecified) the melting point was 163 to 165 °C.
For `COc1c(C(=O)O)sc(C)c1C`, the melting point was 142 to 143 °C.
Work on `CC(C)N(O)C(=O)C=Cc1ccc2ccccc2c1` yielded a melting point of 184 to 185 °C.
`Nc1nc(N2CCOCC2)c2ncn(C3CC(F)C(CO)O3)c2n1` (stereo unspecified) gave a melting point of 165 to 167 °C.
With `Cc1ccc(S(=O)(=O)NC(=O)Nc2ccccc2)cc1` the melting point was 166 °C.
Work on `COc1cc(-c2ccc3cc4c(cc3c2C=O)OCO4)c([N+](=O)[O-])cc1OC` yielded a melting point of 225 °C.
With `COc1ccc2c(c1)c1c(n2CCBr)C(=O)CCC1` the melting point was 119 °C.
`c1ccc(Oc2cccc(Nc3nnc(Cc4ccncc4)c4ccccc34)c2)cc1` showed a melting point of 186 to 189 °C.
With `C=CCSc1nc2ccc(OCC)cc2[nH]1` the melting point was 147 to 149 °C.
With `Cc1cc(C(N)(C(F)(F)F)C(F)(F)F)cc(C)c1OCC(=O)O` the melting point was 138 °C.
In the case of `COC(=O)C1(CC(N)=O)C(=O)N(Cc2ccc(Br)cc2F)C(=O)c2ccccc21` (stereo unspecified), the melting point is reported as 180 to 182 °C.
Molecule `Cc1nn(-c2ccccn2)c2c1C(O)CC(C)(C)C2` (stereo unspecified) has a melting point of 125 to 126 °C.
Molecule `CC(C)N(C(=O)C(Cc1ccc(C=O)cc1)NC(=O)OC(C)(C)C)C(C)C` (stereo unspecified) has a melting point of 152 °C.
Molecule `O=C(Nc1cccc2[nH]ccc12)c1ccccc1OCC(O)CN1CCN(C(c2ccccc2)c2ccccc2)CC1` (stereo unspecified) has a melting point of 170 °C.
With `COc1ccc2c(O)n[nH]c2c1OC` the melting point was 175 °C.
`CN(C)C=CC(=O)c1cc(Cl)ccc1Cl` gave a melting point of 83 to 85 °C.
Work on `COC(=O)CCn1c2ccc(O)cc2c2c3c(c(-c4ccccc4Cl)cc21)C(=O)NC3=O` yielded a melting point of 218 to 220 °C.
With `Clc1ccc(Nc2nc(-c3nccc4ccccc34)nc3ccccc23)cc1` the melting point was 279 to 280 °C.
`CCOCn1c(Br)c(Br)c(C#N)c1C(F)(F)F` showed a melting point of 65 to 67 °C.
In the case of `CS(=O)(=O)c1c(C#N)nn(-c2c(Cl)cc(C(F)(F)F)cc2Cl)c1-n1cccc1`, the melting point is reported as 200 to 202 °C.
Molecule `FC(F)(F)c1nc(-c2ccc(OCCCn3ccnc3)cc2)no1` has a melting point of 73 to 73.5 °C.
For `CCn1c(=O)c2c(nc(/C=C/c3ccc(OC)c(O)c3)n2C)n(CC)c1=O`, the melting point was 204 to 206 °C.
In the case of `COc1cc(Cc2cnc(NCCCCc3ncccc3OC)[nH]c2=O)ccn1`, the melting point is reported as 72 to 74 °C.
Work on `O=[N+]([O-])c1ccc(C(Cl)(Cl)Br)cc1` yielded a melting point of 51.3 to 52.9 °C.
Molecule `O=C(NCc1ccc(C(=O)O)c(OCc2ccccc2)c1)OCc1ccccc1` has a melting point of 139 to 140 °C.
With `CN(C)C(=O)c1cccc(C(C(N)=O)c2cccc(Br)c2)c1` (stereo unspecified) the melting point was 119 to 120 °C.
In the case of `COc1ccc(NC2(C(N)=O)CCOCC2)cc1`, the melting point is reported as 141 to 143 °C.
`Cc1nc2ccc(C(=O)O)[nH]c-2c1Cc1ccc(Cl)cc1Cl` gave a melting point of 235 to 236 °C.
In the case of `CC1(C)CC(NC(=O)c2cc(C(C)(C)C)c(O)c(C(C)(C)C)c2)CC(C)(C)N1`, the melting point is reported as 256 to 258 °C.
In the case of `CCOC(=O)c1ccc(-c2ccsc2)nc1C(=O)OCC`, the melting point is reported as 100 to 102 °C.
In the case of `Cc1ccc(-c2ccc3c(c2)C=C(C(=O)Nc2ccc(Cc4ncccc4O)cc2)CCO3)cc1`, the melting point is reported as 285 to 288 °C.
`BrCCCCCCCCCCCCCCCCCCCCCCCCBr` gave a melting point of 105 °C.
For `COC(CNC(=O)N(N=Cc1ccccc1)c1cc(Cl)c(Cc2ccc(C(=O)c3ccc(Cl)cc3)cc2)c(Cl)c1)OC`, the melting point was 158 to 160 °C.
With `O=C(Cn1ccnc1[N+](=O)[O-])c1cccnc1` the melting point was 125 to 127 °C.
In the case of `CC(=O)N1CCC2(CC1)CC(=O)c1c(O)cccc1O2`, the melting point is reported as 114 to 116 °C.
For `Cc1cccc(Cl)c1Nc1nc2ccc(-c3c(C)cccc3C)cc2n2cncc12`, the melting point was 140 to 150 °C.
For `O=C(O)c1ccc(CC2(Cc3ccc(C(=O)O)cc3)C(=O)N=C3C=CC=CN32)cc1`, the melting point was > 300 °C.
Work on `COc1cc([N+](=O)[O-])c(F)cc1Br` yielded a melting point of 74 to 76 °C.
For `Nc1ccc2c(c1)CNC2`, the melting point was 113 to 119 °C.
`CC(C)(C)OC(=O)NC1CCCCCC=CC2CC2(C(=O)NS(=O)(=O)C2CC2)NC(=O)C2CC(OC(=O)c3ccccc3)CN2C1=O` (stereo unspecified) gave a melting point of 140 to 142 °C.
`COc1cc2ncnc(Nc3cccc(C)c3)c2c(N)c1OC` gave a melting point of 181 to 182 °C.
`S=C(Cc1cccnc1)N1CCOCC1` gave a melting point of 158 to 160 °C.
Work on `O=C(O)CCCCCCc1nc2ccccc2s1` yielded a melting point of 62 to 63 °C.
Molecule `CCOC(=O)C(=CNC1CC1)C(=O)c1c(F)c(F)c(F)c(F)c1N(C)C` has a melting point of 122 to 124 °C.
With `O=C(CN1CCNCC1)Nc1ccccc1` the melting point was 71 to 72 °C.
